Data: ChEMBL document CHEMBL3739306, “Enantiomeric resolution of [(2,2-diphenyl-1,3-dioxolan-4-yl)methyl](2-phenoxyethyl)amine, a potent 1and 5-HT1Areceptor ligand: an in vitro and computational study” (Medchemcomm, 2015)

Assays:
[1] = target: T1, Alpha-1D adrenergic receptor (Homo sapiens, UniProt P25100); assay: Displacement of [3H]prazosin from human recombinant alpha1D adrenoceptor expressed in CHO cell membrane after 30 mins by liquid scintillation counting; format: cell membranes
T1 sequence (P25100 whole entry): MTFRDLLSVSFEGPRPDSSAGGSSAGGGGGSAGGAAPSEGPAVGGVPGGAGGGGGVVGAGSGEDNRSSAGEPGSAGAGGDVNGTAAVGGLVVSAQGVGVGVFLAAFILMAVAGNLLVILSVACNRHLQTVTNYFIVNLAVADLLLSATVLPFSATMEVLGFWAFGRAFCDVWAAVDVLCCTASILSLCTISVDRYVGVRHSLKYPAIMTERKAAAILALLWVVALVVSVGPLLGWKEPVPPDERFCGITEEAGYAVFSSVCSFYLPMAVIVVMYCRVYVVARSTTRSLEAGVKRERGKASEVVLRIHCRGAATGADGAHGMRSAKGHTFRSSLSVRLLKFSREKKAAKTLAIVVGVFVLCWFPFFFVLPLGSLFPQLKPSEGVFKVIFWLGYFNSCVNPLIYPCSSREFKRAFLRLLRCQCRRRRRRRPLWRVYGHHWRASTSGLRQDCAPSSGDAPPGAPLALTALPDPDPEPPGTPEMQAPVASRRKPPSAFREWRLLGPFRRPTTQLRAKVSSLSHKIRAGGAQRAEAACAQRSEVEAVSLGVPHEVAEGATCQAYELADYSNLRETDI

[2] = target: T2, Alpha-1B adrenergic receptor (Homo sapiens, UniProt P35368); assay: Displacement of [3H]prazosin from human recombinant alpha1B adrenoceptor expressed in CHO cell membrane after 30 mins by liquid scintillation counting; format: cell membranes
T2 sequence (P35368 whole entry): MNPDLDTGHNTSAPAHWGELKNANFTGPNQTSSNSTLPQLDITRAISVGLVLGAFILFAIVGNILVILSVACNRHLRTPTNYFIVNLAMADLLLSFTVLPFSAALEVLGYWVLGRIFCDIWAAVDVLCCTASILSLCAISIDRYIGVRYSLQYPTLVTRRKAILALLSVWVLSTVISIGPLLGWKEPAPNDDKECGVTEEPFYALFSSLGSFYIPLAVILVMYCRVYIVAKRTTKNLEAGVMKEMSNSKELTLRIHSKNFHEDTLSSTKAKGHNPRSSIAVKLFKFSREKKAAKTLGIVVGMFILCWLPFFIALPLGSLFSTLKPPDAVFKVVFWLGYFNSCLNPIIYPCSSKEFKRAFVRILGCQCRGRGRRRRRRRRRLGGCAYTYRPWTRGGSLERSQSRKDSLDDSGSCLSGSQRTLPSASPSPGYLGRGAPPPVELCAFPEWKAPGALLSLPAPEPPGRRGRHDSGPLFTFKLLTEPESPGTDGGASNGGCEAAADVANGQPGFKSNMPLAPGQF

[3] = species on record: Rattus norvegicus; assay: Selectivity ratio of pA2 for alpha1D adrenoceptor in Wistar rat thoracic aorta to pKb for alpha1A adrenoceptor in Wistar rat vas deferans
[4] = species on record: Rattus norvegicus; assay: Selectivity ratio of pA2 for alpha1D adrenoceptor in Wistar rat thoracic aorta to pKb for alpha1B adrenoceptor in Wistar rat spleen
[5] = target: T3, Alpha-1B adrenergic receptor (Rattus norvegicus) (UniProt P15823); assay: Antagonist activity at alpha1B adrenoceptor in Wistar rat spleen assessed as phenylephrine-induced contractions after 30 mins
T3 sequence (whole entry): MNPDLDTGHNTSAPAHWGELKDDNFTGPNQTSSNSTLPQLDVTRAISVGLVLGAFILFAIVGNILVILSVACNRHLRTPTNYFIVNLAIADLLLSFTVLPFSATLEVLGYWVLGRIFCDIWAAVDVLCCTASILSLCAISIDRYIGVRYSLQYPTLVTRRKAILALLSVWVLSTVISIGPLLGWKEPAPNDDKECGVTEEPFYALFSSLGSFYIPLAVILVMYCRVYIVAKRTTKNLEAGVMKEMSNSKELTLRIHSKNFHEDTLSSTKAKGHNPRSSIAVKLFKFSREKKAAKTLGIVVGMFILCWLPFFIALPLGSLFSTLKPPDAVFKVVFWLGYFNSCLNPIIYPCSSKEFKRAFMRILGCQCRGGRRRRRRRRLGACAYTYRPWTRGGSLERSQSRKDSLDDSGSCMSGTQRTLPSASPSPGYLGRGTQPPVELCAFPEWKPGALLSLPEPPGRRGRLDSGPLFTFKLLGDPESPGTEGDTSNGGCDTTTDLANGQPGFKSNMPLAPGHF

[6] = target: T4, 5-hydroxytryptamine receptor 1A (Homo sapiens) (UniProt P08908); assay: Agonist activity at human recombinant 5-HT1A receptor expressed in HeLa cell membrane after 20 mins by [35S]GTPgammaS binding assay; format: functional, cell membranes
T4 sequence (whole entry): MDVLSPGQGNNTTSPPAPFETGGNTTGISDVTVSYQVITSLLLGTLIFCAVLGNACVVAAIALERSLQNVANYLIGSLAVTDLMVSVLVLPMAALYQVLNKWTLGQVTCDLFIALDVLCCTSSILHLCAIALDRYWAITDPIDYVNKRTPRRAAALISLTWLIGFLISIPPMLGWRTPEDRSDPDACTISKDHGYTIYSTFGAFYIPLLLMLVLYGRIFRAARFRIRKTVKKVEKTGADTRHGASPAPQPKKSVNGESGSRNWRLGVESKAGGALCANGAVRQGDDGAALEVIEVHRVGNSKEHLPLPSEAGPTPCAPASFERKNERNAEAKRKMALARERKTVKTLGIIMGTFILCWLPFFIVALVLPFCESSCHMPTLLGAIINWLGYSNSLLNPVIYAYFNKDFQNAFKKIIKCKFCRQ

[7] = target: T5, Alpha-1A adrenergic receptor (Rattus norvegicus) (UniProt P43140); assay: Antagonist activity at alpha1A adrenoceptor in Wistar rat vas deferans assessed as noradrenaline-induced contractions after 30 mins
T5 sequence (whole entry): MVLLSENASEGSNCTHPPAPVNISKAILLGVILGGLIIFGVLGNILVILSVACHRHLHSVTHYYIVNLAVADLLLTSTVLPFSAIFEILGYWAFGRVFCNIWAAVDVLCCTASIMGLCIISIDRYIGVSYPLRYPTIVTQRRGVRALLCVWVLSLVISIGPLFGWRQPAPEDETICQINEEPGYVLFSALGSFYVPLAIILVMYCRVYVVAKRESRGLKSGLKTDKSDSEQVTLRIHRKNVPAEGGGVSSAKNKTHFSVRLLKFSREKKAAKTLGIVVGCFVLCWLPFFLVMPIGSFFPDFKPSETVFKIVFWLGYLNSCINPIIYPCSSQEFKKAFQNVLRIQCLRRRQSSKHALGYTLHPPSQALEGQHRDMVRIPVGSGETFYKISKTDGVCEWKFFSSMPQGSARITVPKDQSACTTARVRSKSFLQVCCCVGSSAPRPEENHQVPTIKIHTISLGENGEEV

[8] = target: T6, 5-hydroxytryptamine receptor 1A (Homo sapiens, UniProt P08908); assay: Displacement of [3H]8-OH-DPAT from human recombinant 5-HT1A receptor expressed in HeLa cell membrane after 30 mins by liquid scintillation counting; format: cell membranes
T6 sequence (P08908 whole entry): T4 sequence (whole entry)

[9] = target: T7, Alpha-1D adrenergic receptor (Rattus norvegicus, UniProt P23944); assay: Antagonist activity at alpha1D adrenoceptor in Wistar rat thoracic aorta assessed as noradrenaline-induced contractions after 30 mins; format: tissue-based; details: read-out: pA2 (converted)
T7 sequence (P23944 whole entry): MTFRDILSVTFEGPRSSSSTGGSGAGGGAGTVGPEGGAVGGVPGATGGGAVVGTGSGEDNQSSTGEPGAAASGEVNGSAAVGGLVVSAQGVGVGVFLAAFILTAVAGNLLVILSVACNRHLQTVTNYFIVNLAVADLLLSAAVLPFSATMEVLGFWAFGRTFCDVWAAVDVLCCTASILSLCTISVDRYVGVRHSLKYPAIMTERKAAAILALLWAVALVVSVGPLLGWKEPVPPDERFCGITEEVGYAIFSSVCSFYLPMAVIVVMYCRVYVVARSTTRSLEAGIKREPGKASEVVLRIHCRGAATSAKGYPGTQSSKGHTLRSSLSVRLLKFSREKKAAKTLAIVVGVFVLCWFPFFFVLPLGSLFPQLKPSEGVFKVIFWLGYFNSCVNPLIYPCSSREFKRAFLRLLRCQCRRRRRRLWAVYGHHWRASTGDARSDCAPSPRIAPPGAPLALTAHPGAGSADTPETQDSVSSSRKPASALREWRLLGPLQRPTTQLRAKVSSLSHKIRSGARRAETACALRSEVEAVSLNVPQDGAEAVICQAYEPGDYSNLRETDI

[10] = system: CHO; assay: Selectivity index, ratio of pKi for human recombinant 5-HT1A receptor expressed in HeLa cell membrane to pKi for human recombinant alpha1D adrenoceptor expressed in CHO cell membrane; format: cell-based
[11] = target: T8, Alpha-1A adrenergic receptor (Homo sapiens, UniProt P35348); assay: Displacement of [3H]prazosin from human recombinant alpha1A adrenoceptor expressed in CHO cell membrane after 30 mins by liquid scintillation counting; format: cell membranes
T8 sequence (P35348 whole entry): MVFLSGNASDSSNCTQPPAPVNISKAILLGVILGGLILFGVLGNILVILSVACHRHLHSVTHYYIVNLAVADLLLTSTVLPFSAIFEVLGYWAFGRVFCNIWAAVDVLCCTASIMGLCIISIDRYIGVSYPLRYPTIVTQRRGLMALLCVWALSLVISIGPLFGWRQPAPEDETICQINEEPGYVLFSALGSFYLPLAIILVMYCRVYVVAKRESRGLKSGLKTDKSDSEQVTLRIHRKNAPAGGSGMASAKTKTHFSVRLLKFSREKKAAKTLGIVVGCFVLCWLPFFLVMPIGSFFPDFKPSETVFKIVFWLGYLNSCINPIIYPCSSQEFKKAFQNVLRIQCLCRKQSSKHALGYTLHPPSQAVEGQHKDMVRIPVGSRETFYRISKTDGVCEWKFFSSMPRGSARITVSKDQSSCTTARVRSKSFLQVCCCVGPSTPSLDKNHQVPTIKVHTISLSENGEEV

[12] = system: CHO; assay: Selectivity index, ratio of pKi for human recombinant alpha1A adrenoceptor to pKi for human recombinant alpha1B adrenoceptor expressed in CHO cell membrane; format: cell-based
[13] = species on record: Rattus norvegicus; assay: Selectivity ratio of pKb for alpha1A adrenoceptor in Wistar rat vas deferans to pKb for alpha1B adrenoceptor in Wistar rat spleen
[14] = system: CHO; assay: Selectivity index, ratio of pKi for human recombinant alpha1D adrenoceptor to pKi for human recombinant alpha1A adrenoceptor expressed in CHO cell membrane; format: cell-based
[15] = system: CHO; assay: Selectivity index, ratio of pKi for human recombinant alpha1D adrenoceptor to pKi for human recombinant alpha1B adrenoceptor expressed in CHO cell membrane; format: cell-based

Compound	Ki [1] [nM]	Ki [2] [nM]	Ratio [3]	Ratio [4]	pKb [5]	Emax [6] [%]	pD2 [6]	pKb [7]	Ki [8] [nM]	Kb [9] [nM]	Ratio pKi [10]	Ki [11] [nM]	Ratio pKi [12]	Ratio [13]	Ratio pKi [14]	Ratio pKi [15]
c1ccc(OCCNC[C@@H]2COC(c3ccccc3)(c3ccccc3)O2)cc1	22.9	79.4	23	34	6.51	65.3	7.45	6.67	3.02	5.13	8	30.2	3	1	1	3
c1ccc(OCCNCC2COC(c3ccccc3)(c3ccccc3)O2)cc1 (racemic)	11.7	–	110	219	5.86	–	8.8	6.16	–	6.31	3	–	2	0.5	3	5
c1ccc(OCCNC[C@H]2COC(c3ccccc3)(c3ccccc3)O2)cc1	14.5	115	26	30	6.14	50	6.85	6.2	3.8	24.5	4	126	1	1	9	8
